Source: publication PMC11988817, “Prediction and Prioritisation of Novel Anthelmintic Candidates from Public Databases Using Deep Learning and Available Bioactivity Data Sets” (International Journal of Molecular Sciences, 2025)
Where two headings read alike, the source gives them in different places.

Experiments:
[1] = test system: exsheathed third-stage larvae (xL3s) of H. contortus; assay: xL3 larval development (to L4) assay; set-up: species or system Haemonchus contortus; conditions: for IC50: Haemonchus contortus, read-out: Larval Development IC50
Description: (§1) The prioritised compounds were purchased from MolPort and evaluated for their activity by estimating their IC50 values and MMIs against xL3s of H. contortus (Haecon-5 strain) using an established method. In brief, xL3s were dispensed in 96-well plates (cat. no. 3596; Corning, Corning, NY, USA) at a density of 300 xL3s per well with individual, serially diluted compounds (9-points; 2-fold serial dilution; 50 µM to […]), in a final volume of 100 µL of LB* (= sterile lysogenic broth [LB] supplemented with 100 IU/mL penicillin, 100 µg/mL streptomycin and 0.25 µg/mL amphotericin B [Fungizone®, Thermo Fisher Scientific, Waltham, MA, USA]). Plates containing xL3s were incubated at 38 °C, 10% (v/v) CO2 and >90% relative humidity. Following 168 h of incubation, the compounds were tested by three independent experiments in triplicate. The xL3s motility and development to fourth-stage larvae (L4s) were measured with reference to two commercial anthelmintics, monepantel (Zolvix^TM; Elanco, Greenfield, IN, USA) and moxidectin (Cydectin®; Virbac, Carros, France). Negative control wells containing 0.25% (v/v) DMSO were present on all plates. […] Compound concentrations were log10-transformed and fitted using a variable slope four-parameter equation, constraining the highest value to 100% and employing a least squares (ordinary) fit model as implemented in GraphPad Prism software (v.10.0.1). A one-way analysis of variance (ANOVA) with a Dunnett’s multiple comparison test was used to establish statistically significant differences in larval motility and in development.

[2] = test system: adult females of H. contortus; assay: adult female motility time-course assay; set-up: species or system Haemonchus contortus; conditions: 50 µM
Description: (§2) Subsequently, the selected compounds evaluated for in vitro activity against larvae were further assessed for their activity against adult females and males of H. contortus using an established motility assay. In brief, the compound was dispensed in 24-well plates (cat. no. 3524; Corning) at a concentration of 50 μM in 500 μL of RPMI* (RPMI 1640 medium supplemented with 4 mM L-glutamine, 100 U/mL penicillin, 100 µg/mL streptomycin and 0.25 µg/mL amphotericin B). Two positive controls, monepantel and moxidectin, were each prepared in the same manner, and a negative control containing 0.25% (v/v) DMSO was included on all plates. Three adult females or males were added to each of the wells containing either the test compound or a control compound and then incubated at 38 °C, 10% (v/v) CO2 and >90% relative humidity for 24 h. The compounds were tested in triplicate. A video recording (30 sec) of each well was taken at 0 h, 3 h, 6 h, 12 h and 24 h during the entire incubation period to assess the reduction in worm motility—scored as 3 (‘good’), 2 (‘low’), 1 (‘very low’) or 0 (‘none’). For each test or control compound, the motility scores for each of the triplicate wells were calculated, normalised with reference to the negative control (100% motility), and recorded as a percentage. A two-way ANOVA with Dunnett’s multiple comparison test was used to establish statistically significant differences against the DMSO control in worm motility for each time point.

[3] = test system: adult males of H. contortus; assay: adult male motility time-course assay; set-up: species or system Haemonchus contortus; conditions: 50 µM
Description: as §2

[4] = test system: exsheathed third-stage larvae (xL3s) of H. contortus; assay: abnormal larval phenotype / worm morphology assessment; set-up: species or system Haemonchus contortus; key to Abnormal Phenotype: curved (Cur); evisceration (Evi); coiled (Coi); conditions: 168 h; for Abnormal Phenotype: exhibited at 50 µM
Description: as §1

[5] = HepG2 cytotoxicity (CellTiter-Glo); type: cell-based; conditions: human
Description: The cytotoxicity of the prioritised compounds 3, 4 and 6 on human hepatoma (HepG2) cells was evaluated as described previously. In brief, HepG2 cells were first cultured (in an incubator at 5% (v/v) CO2, 37 °C and >90% humidity) in Dulbecco’s modified Eagle’s medium (DMEM), supplemented with 5% (v/v) foetal bovine serum (FBS). The test compounds were serially diluted (10-points; 2-fold serial dilution; top concentration of 50 μM) in DMEM plus 10% (v/v) FBS, adjusted to a DMSO concentration of 0.5% (v/v) and arrayed across a 384-well plate. Bortezomib (10 μM) was used as a positive control, and 0.5% DMSO was used as a negative control. HepG2 cells (1 × 10^3 cells per 50 μL of DMEM plus 10% FBS) were then seeded into wells of the assay plate; the plates were then incubated in 5% (v/v) CO2, 37 °C and >90% humidity for 48 h. Subsequently, cell proliferation was assessed using CellTiter-Glo (Promega, Fitchburg, WI, USA) and normalised against the negative controls and expressed as a percentage. All compounds were tested in duplicate. The half-maximal cytotoxic (CC50) values were calculated using the software Dotmatics (v.5.3) and Spotfire (v.7.11.1) employing a non-linear regression four-parameter fit analysis.

[6] = test system: exsheathed third-stage larvae (xL3s) of H. contortus; assay: xL3 larval motility dose-response assay; set-up: species or system Haemonchus contortus; conditions: for IC50: read-out: Larval Motility IC50; for inhibition at 50 µM / inhibition at up to 50 µM: read-out: Larval motility maximal inhibition (MI; MMI) (converted); for inhibition of xL3 motility (in words): dose-response up to 50 µM; for inhibition at 50 µM / inhibition at up to 50 µM / Larval motility maximal inhibition (MI; MMI): at 50 µM
Description: as §1

Haemonchus contortus = conditions: cited from earlier work
[7] = Haemonchus contortus, 168 h, xL3s, 168 h
[8] = Haemonchus contortus, 168 h, xL3s, 168 h of exposure, three independent assays in triplicate

Row | SMILES | Abnormal Phenotype [4] | IC50 ([1]; xL3s, 168 h of exposure) [µM] | inhibition at 50 µM [6, 7] [%] | IC50 [6, 8] [µM] | further results
1 | c1ccc(-c2cnc3ccccc3n2)cc1 [Compound 4, 2-Phenylquinoxaline] | nil | – | – | – | IC50 ([1]; 168 h): > 50 µM; motility reduction, adult females, 24 h [2]: 40%; motility reduction, adult males, 24 h [3]: 50%; CC50 at 48 h ([5]; HepG2 cells): > 40 µM; IC50 ([6]; Haemonchus contortus, 168 h): 5.8 ± 4.1 µM
2 | CC(C#N)(COc1cc(C#N)ccc1C(F)(F)F)NC(=O)c1ccc(OC(F)(F)F)cc1 (stereo not shown) [APDB C823] | – | – | – | – | antiparasitic activity (in words) (Haemonchus contortus): possess antiparasitic activity
3 | O=C(CCC(F)(F)F)NCCc1cnccn1 [Compound 5, 4,4,4-Trifluoro-N-[2-(pyrazin-2-yl)ethyl]butanamide] | nil | > 50 | 65 | 37.5 ± 2.5 | –
4 | N#Cc1ccc(OCc2cccc(F)c2)cc1 [Compound 6, 4-[(3-Fluorophenyl)methoxy]benzonitrile] | Evi | 23.6 | 100 | 7.4 ± 9.4 | motility reduction, adult females, 6 h [2]: 33%; motility reduction, adult females, 12 h [2]: 50%; motility reduction, adult females, 24 h [2]: 75%; effect on adult female motility (in words) ([2]; within 24 h): significant reduction in the motility; motility reduction, adult males, 6 h [3]: 50%; motility reduction, adult males, 12 h [3]: 75%; motility reduction, adult males, 24 h [3]: 100%; effect on adult male motility (in words) ([3]; within 24 h): complete immobilisation; Larvae with abnormal phenotype (exhibited at 50 µM) [4]: 100%; CC50 at 48 h ([5]; HepG2 cells (human hepatoma)): > 40 µM; inhibition of xL3 motility (in words) ([6]; 168 h): inhibition of H. contortus motility was only observed
5 | CC(C)Oc1cccc(-c2cnc3c(n2)CCCC3)c1 [APDB C802] | – | – | – | – | antiparasitic activity (in words) (Haemonchus contortus; tetrahydroquinoxalines): antiparasitic activity was observed
6 | N#Cc1ccc(N2CCC(O)CC2)cc1 [Compound 7, 4-(4-Hydroxypiperidin-1-yl)benzonitrile] | nil | > 50 | 70 | 2.1 ± 3.5 | –
7 | N=C(N)c1ccc(N2CCOCC2)cc1 [Compound 2, 4-(Morpholin-4-yl)benzene-1-carboximidamide] | nil | > 50 | – | 1.8 ± 1.4 | inhibition at up to 50 µM [6, 7]: 53%
8 | CC(C)(CO)NCC#Cc1ccccc1 [Compound 10, 2-Methyl-2-[(3-phenylprop-2-yn-1-yl)amino]propan-1-ol] | nil | > 50 | 50 | 0.8 ± 1.2 | motility reduction, adult females, 24 h [2]: 40%
9 | C[C@](C#N)(COc1cc(C#N)ccc1C(F)(F)F)NC(=O)c1ccc(SC(F)(F)F)cc1 [Monepantel, N-[(2S)-2-cyano-1-[5-cyano-2-(trifluoromethyl)phenoxy]propan-2-yl]-4-(trifluoromethylsulfanyl)benzamide, reference compound] | Coi | 0.4 | – | 0.2 ± 0.002 | motility reduction, adult females, 6 h [2]: 67%; motility reduction, adult females, 12 h [2]: 67%; motility reduction, adult females, 24 h [2]: 67%; motility reduction, adult males, 6 h [3]: 67%; motility reduction, adult males, 12 h [3]: 67%; motility reduction, adult males, 24 h [3]: 100%; Larvae with abnormal phenotype (exhibited at 50 µM) [4]: 100%; inhibition at up to 50 µM [6, 7]: 100%
10 | N#Cc1ccc(NC(=O)COCC(=O)NCC(N)=O)cc1 [Compound 9, N-(Carbamoylmethyl)-2-{[(4-cyanophenyl)carbamoyl]methoxy}acetamide] | nil | > 50 | 46 | 4.1 | –
11 | CC12CN3CN(C1)CC(c1ccccc1)(C3)C2=O [Compound 8, (1S,5R,7S)-5-Methyl-7-phenyl-1,3-diazatricyclo[3.3.1.1³,⁷]decan-6-one] | nil | > 50 | 42 | 0.8 ± 1.6 | –
12 | COC(=O)c1ccc(-c2cc(C#N)ccn2)cc1 [Compound 1, Methyl 4-(4-cyanopyridin-2-yl)benzoate] | curved (Cur) and Evi | > 50 | 50 | 6.2 ± 0.3 | inhibition of larval development (in words) ([1]; 168 h): not inhibited; Larvae with abnormal phenotype (exhibited at 50 µM) [4]: 20%
13 | CO/N=C1\C[C@]2(C[C@@H]3C[C@@H](C/C=C(\C)C[C@@H](C)/C=C/C=C4\CO[C@@H]5[C@H](O)C(C)=C[C@@H](C(=O)O3)[C@]45O)O2)O[C@H](/C(C)=C/C(C)C)[C@H]1C [Moxidectin, (1R,4S,4'E,5'S,6R,6'S,8R,10E,13R,14E,16E,20R,21R,24S)-21,24-dihydroxy-4'-methoxyimino-5',11,13,22-tetramethyl-6'-[(E)-4-methylpent-2-en-2-yl]spiro[3,7,19-trioxatetracyclo[15.6.1.14,8.020,24]pentacosa-10,14,16,22-tetraene-6,2'-oxane]-2-one, reference compound] | nil | 45 | – | 0.5 | Larval development maximal inhibition (MI) ([1]; xL3s, 168 h of exposure): 100%; Larval motility maximal inhibition (MI; MMI) ([6]; xL3s, 168 h): 75%; Larval motility maximal inhibition (MI; MMI) ([6]; xL3s, 168 h, listed as moxidectin): 5%; IC50 ([6]; xL3s, 168 h of exposure, three independent assays in triplicate): 0.8 ± 0.4 µM
14 | COc1ccc(-c2cncc(C#N)n2)cc1OC [Compound 3, 6-(3,4-Dimethoxyphenyl)pyrazine-2-carbonitrile] | Evi | 37.1 | 54 | 7.9 ± 1.9 | Larval development maximal inhibition (MI) ([1]; xL3s, 168 h of exposure): 100%; Larvae with abnormal phenotype (exhibited at 50 µM) [4]: 80%; altered worm morphology / abnormal phenotype (in words) [4]: induced an abnormal phenotype; CC50 at 48 h ([5]; HepG2 cells (human hepatoma)): > 40 µM; inhibition of xL3 motility (in words) ([6]; 168 h): inhibition of H. contortus motility was only observed
15 | COc1ccc(-c2cnc3c(n2)CCCC3)cc1C#N [APDB C798] | – | – | – | – | antiparasitic activity (in words) (Haemonchus contortus; tetrahydroquinoxalines): antiparasitic activity was observed
